Among the test systems are COLO 205 colon; DMS 114 small cell lung; HOP-18 NSCLC; NCI-H460 lung; SK-OV-3 ovarian; TK-10 renal; XF 498 CNS; HCT-15 colon; HT29 colon; NCI/ADR-RES ovarian.
Holding throughout (experiment): inhibition of tumour cell growth, NCI panel, 48 h

The record followed here is PubChem BioAssay (NCI).

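Interpolation was linear, between the two tested concentrations surrounding the appropriate level; five concentrations were tested over 48 hours in 96-well plates. GI50 = concentration required for 50% inhibition of growth. TGI denotes the concentration required for complete inhibition of growth.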

On to `CCOC(=O)C1=C(Nc2ccc(Cl)c(Cl)c2)OC/C1=N\NC(=O)Cc1ccccc1`, for which the TGI with COLO 205 colon, in the test on DMS 114 small cell lung, in the test on HOP-18 NSCLC, in the test with NCI-H460 lung, in the test with SK-OV-3 ovarian and in the test with TK-10 renal was over 100 µM in each case. Further, in the test with XF 498 CNS, the TGI was over 100 µM.
As to `C/C(=N\NC(=S)N1CCN(c2ccccn2)CC1)c1nccs1`, the GI50 was 0.0361 µM with COLO 205 colon, 0.0472 µM in the test with HCT-15 colon and 0.279 µM in the test with NCI/ADR-RES ovarian. For the same molecule, the TGI is 15.3 µM in the test with COLO 205 colon; 0.649 µM in the test on DMS 114 small cell lung; 21.3 µM in the test on HCT-15 colon; over 90.8 µM with HOP-18 NSCLC; 33.7 µM in the test with HT29 colon; 2.3 µM in the test on NCI-H460 lung. Moreover, the TGI in the test on NCI/ADR-RES ovarian worked out at 2.56 µM; in the test with SK-OV-3 ovarian, 18.3 µM; in the test with TK-10 renal it was 20 µM; in the test on XF 498 CNS it was 32.1 µM.
In the case of `COc1ccc(N2C(=O)C3c4[nH]c5ccccc5c4C4CCCCCCC4C3C2=O)cc1` (configuration not stated), the TGI with COLO 205 colon was over 48.6 µM; in the test with DMS 114 small cell lung, 28 µM; in the test with HCT-15 colon, 27 µM; with HOP-18 NSCLC it was 3.2 µM; in the test with HT29 colon, over 100 µM; in the test with NCI-H460 lung it was 27.5 µM. For the same molecule, the TGI in the test with SK-OV-3 ovarian is 33.2 µM; in the test with TK-10 renal, 40.4 µM; in the test on XF 498 CNS, 25.7 µM.
Regarding `CCCCCCCCCCCCCC(=O)NCC(OCC)OCC`, the TGI with COLO 205 colon, in the test on DMS 114 small cell lung, in the test on HCT-15 colon, in the test on HOP-18 NSCLC, with HT29 colon and in the test with NCI-H460 lung was over 100 µM each time. Besides, the TGI in the test with SK-OV-3 ovarian, with TK-10 renal and with XF 498 CNS was over 100 µM each time.
In the case of `O=C1CCN2CCC(=O)c3c2c(cc2ccccc32)N1`, the TGI in the test with COLO 205 colon, with DMS 114 small cell lung, in the test on HCT-15 colon, in the test on HT29 colon, in the test with NCI-H460 lung and with SK-OV-3 ovarian was over 100 µM throughout. Further, the TGI is over 100 µM in the test on TK-10 renal and 93.5 µM in the test on XF 498 CNS.
For `COc1cc(/C=C/c2ccc(OC)c(OC)c2OC)cc(OC)c1OC`, the TGI in the test on COLO 205 colon was 33.3 µM; with DMS 114 small cell lung, 60.9 µM; in the test with HCT-15 colon it was over 57.2 µM; with HOP-18 NSCLC, 44.9 µM; in the test on HT29 colon it was over 63.9 µM; in the test on NCI-H460 lung, 56.2 µM. In addition, the TGI in the test on SK-OV-3 ovarian was 57.6 µM; in the test on TK-10 renal, over 82.9 µM; in the test on XF 498 CNS it was 72.3 µM.
Turning to `Clc1ccc2ns[s+]c2c1`, the TGI in the test with COLO 205 colon was over 44.9 µM; in the test with DMS 114 small cell lung, over 100 µM; with HCT-15 colon, over 100 µM; in the test with HOP-18 NSCLC, over 100 µM; in the test with HT29 colon, over 100 µM; in the test on NCI-H460 lung, over 100 µM. Moreover, the TGI is over 100 µM in the test on SK-OV-3 ovarian, over 61.1 µM in the test on TK-10 renal and over 100 µM with XF 498 CNS.
For `COC(=O)C(CC(=O)c1c[nH]c2ccccc12)c1c[nH]c2ccccc12` (configuration not stated), the TGI was found to be 39.4 µM in the test with DMS 114 small cell lung; 36.3 µM in the test on HCT-15 colon; 31.2 µM in the test with HT29 colon; 37.9 µM with NCI-H460 lung; 69.9 µM in the test with SK-OV-3 ovarian; 76.9 µM in the test with TK-10 renal. This molecule also showed a TGI in the test with XF 498 CNS of 31.8 µM.
Regarding `CC1=NOC(=O)C1N=Nc1ccc(Br)c(C)c1` (configuration not stated), the TGI in the test with COLO 205 colon was 52.9 µM; in the test on DMS 114 small cell lung, 29.3 µM; in the test with HCT-15 colon, 41.6 µM; with HOP-18 NSCLC, 19.8 µM; in the test with HT29 colon, over 100 µM; in the test on NCI-H460 lung, 58.6 µM. In addition, the TGI in the test with SK-OV-3 ovarian worked out at 97.8 µM; with TK-10 renal, 33.2 µM; in the test with XF 498 CNS, 31.7 µM.
Turning to `COC(=O)[C@]1(C)C(OC)=CC(=O)C2C1[C@H]1CCC[C@@H]21` (some centres not stated), the TGI in the test on COLO 205 colon, in the test on DMS 114 small cell lung, with HCT-15 colon, in the test with HOP-18 NSCLC, with HT29 colon and in the test with NCI-H460 lung was over 100 µM throughout. Besides, the TGI in the test on SK-OV-3 ovarian, with TK-10 renal and in the test with XF 498 CNS was over 100 µM each time.
As for `Nc1cc2[nH]cnc2c(=O)[nH]1`, the TGI in the test with COLO 205 colon is 228 µM; in the test on DMS 114 small cell lung, over 300 µM; in the test with HCT-15 colon it was over 300 µM; with HOP-18 NSCLC it was over 300 µM; in the test on HT29 colon it was over 300 µM; in the test with NCI-H460 lung it was over 300 µM. Moreover, the TGI with NCI/ADR-RES ovarian is over 300 µM; in the test on SK-OV-3 ovarian, over 188 µM; with TK-10 renal, over 300 µM; in the test with XF 498 CNS, 29.4 µM.
As to `O=C(CSc1nc(-c2ccccc2)c(-c2ccccc2)[nH]1)NNC(=S)Nc1ccccc1`, the TGI with COLO 205 colon, in the test with DMS 114 small cell lung, with HCT-15 colon, in the test on HT29 colon, in the test on NCI-H460 lung and in the test on SK-OV-3 ovarian was over 100 µM throughout. Moreover, the TGI in the test with TK-10 renal and with XF 498 CNS was over 100 µM throughout.
As for `COc1cc(C2c3cc4c(cc3[C@@H](OCCN(C)C)C3COC(=O)[C@H]23)OCO4)cc(OC)c1O` (some centres not stated), the TGI was 16 µM in the test with COLO 205 colon; 3.12 µM in the test with HCT-15 colon; 4.36 µM in the test on HOP-18 NSCLC; 2.43 µM in the test on HT29 colon; 0.441 µM in the test with NCI-H460 lung; 1.6 µM with SK-OV-3 ovarian. Further, the TGI with TK-10 renal came out at 5.49 µM; in the test with XF 498 CNS, 1.74 µM.
Consider `Clc1ccc(-c2c(C3=NCCN3)nnn2-c2ccccc2)cc1`, for which the TGI with COLO 205 colon, with DMS 114 small cell lung, with HCT-15 colon, in the test on HOP-18 NSCLC, in the test with HT29 colon and in the test with NCI-H460 lung was over 100 µM throughout. The TGI in the test with SK-OV-3 ovarian, in the test on TK-10 renal and in the test on XF 498 CNS was over 100 µM each time.
Regarding `S=P(N1CCCC1)(N1CC1)N1CC1`, the TGI in the test with COLO 205 colon, in the test on DMS 114 small cell lung, in the test on HCT-15 colon, with HOP-18 NSCLC, in the test on HT29 colon and in the test on NCI-H460 lung was over 100 µM in each case. For the same molecule, the TGI with SK-OV-3 ovarian, with TK-10 renal and with XF 498 CNS was over 100 µM in each case.
As to `COc1ccccc1NC(=O)C1=C(C)NC(C)=C(C(=O)Nc2ccccc2OC)C1c1ccc(N(C)C)cc1`, the TGI is 92.1 µM with COLO 205 colon; 65.6 µM with DMS 114 small cell lung; over 100 µM in the test with HT29 colon; over 100 µM with NCI-H460 lung; 84.5 µM in the test with SK-OV-3 ovarian; over 100 µM in the test with TK-10 renal. In the test on XF 498 CNS, this molecule came in with a TGI of 57.1 µM.
As for `COc1c(Sc2ccccc2)cc(Sc2ccccc2)c2cccnc12`, the TGI with COLO 205 colon is 39 µM; in the test with DMS 114 small cell lung, 91.3 µM; in the test with HCT-15 colon, 49.3 µM; in the test with HT29 colon, 71.1 µM; in the test with NCI-H460 lung, 54.5 µM; in the test with SK-OV-3 ovarian, over 100 µM. Moreover, the TGI in the test with TK-10 renal worked out at 81.3 µM; with XF 498 CNS, 45.6 µM.
Consider `COC(=O)c1ccc(C(=O)OC)c2nc3cc(C)ccc3nc12`, for which the TGI in the test on COLO 205 colon, in the test with DMS 114 small cell lung, with HCT-15 colon, with HOP-18 NSCLC, in the test on HT29 colon and in the test on NCI-H460 lung was over 100 µM in each case. Further, the TGI in the test with SK-OV-3 ovarian, in the test with TK-10 renal and in the test on XF 498 CNS was over 100 µM each time.
With `Cc1c(C(=O)CC(=O)C(=O)Nc2cc(Cl)ccc2Cl)[n+](=O)c2ccccc2n1[O-]`, the TGI with COLO 205 colon is 69.6 µM; in the test with DMS 114 small cell lung, 61.3 µM; with HCT-15 colon, 90.2 µM; with HOP-18 NSCLC, over 100 µM; in the test with HT29 colon it was over 100 µM; in the test on NCI-H460 lung it was 99.5 µM. The TGI in the test with SK-OV-3 ovarian, in the test on TK-10 renal and with XF 498 CNS was over 100 µM throughout.
For the molecule `COC(=O)[C@H]1N[C@@H](C(=O)OC)C23CCC[C@H]2CC[C@]1(C(OC)OC)C3`, the TGI with COLO 205 colon, in the test with DMS 114 small cell lung, with HCT-15 colon, in the test on HOP-18 NSCLC, in the test on HT29 colon and with NCI-H460 lung was over 100 µM each time. The TGI in the test with SK-OV-3 ovarian, in the test on TK-10 renal and in the test with XF 498 CNS was over 100 µM each time.
Take `Clc1ccc2c(c1)[nH]c1c2nc2sccn21`: the TGI in the test with COLO 205 colon, with DMS 114 small cell lung, in the test with HCT-15 colon, in the test on HOP-18 NSCLC, in the test on HT29 colon and with NCI-H460 lung was over 100 µM in each case. Moreover, the TGI in the test on SK-OV-3 ovarian, with TK-10 renal and with XF 498 CNS was over 100 µM throughout.
Consider `CC1(O)CCC2(C)C(=O)C1(C)CCC21OCCO1` (configuration not stated), for which the TGI in the test with COLO 205 colon, with DMS 114 small cell lung, with HCT-15 colon, in the test on HOP-18 NSCLC, in the test on HT29 colon and in the test with NCI-H460 lung was over 100 µM in each case. For the same molecule, the TGI with SK-OV-3 ovarian, in the test with TK-10 renal and with XF 498 CNS was over 100 µM each time.
Turning to `ClCc1ccc(C2OCCO2)cc1`, the TGI with COLO 205 colon was 37.8 µM; with DMS 114 small cell lung, over 42.9 µM; in the test with HCT-15 colon, 34.7 µM; in the test with HOP-18 NSCLC, over 92.2 µM; in the test on HT29 colon, 32.6 µM; in the test with NCI-H460 lung, 39.4 µM. For the same molecule, the TGI was over 82 µM with SK-OV-3 ovarian, over 75.3 µM in the test with TK-10 renal and 33.3 µM with XF 498 CNS.
